In US8722626B2, “Method for controlling fibrosis and other pathological deposits in tissues comprising administering a GHRP-6 composition” (Centro de Ingenieria Genetica y Biotecnologia, priority 2006, dated 2014):
Marks after values point to notes of the source that are not given here.

Legend:
[1] = tested on: hepatic fibrosis in male Wistar rats (CCl4); assay: Reverting hepatic fibrosis induced by carbon tetrachloride (CCl4) in rats (Example 2); assay type: in vivo, rat; set-up: SODt (oxidative stress marker) / Catalase (oxidative stress marker) / HPT (oxidative stress marker) / MDA (oxidative stress marker): unit not given here; details: for GOT serum level / GPT serum level / OH—P Content (hydroxiproline) in the liver / Grade 0 (null) bridging fibro-proliferative reaction in liver, animals per group / Grade 1 (moderate, up to 25% of the slide), animals per group / Grade 2 (limited, up to 50% of the slide), animals per group / Grade 3 (severe, up to the 75% of the slide), animals per group / Grade 4 (very severe, over 75% of the slide), animals per group: four weeks; for GOT serum level / GPT serum level / OH—P Content (hydroxiproline) in the liver: end of treatment; for Grade 0 (null) bridging fibro-proliferative reaction in liver, animals per group / Grade 1 (moderate, up to 25% of the slide), animals per group / Grade 2 (limited, up to 50% of the slide), animals per group / Grade 3 (severe, up to the 75% of the slide), animals per group / Grade 4 (very severe, over 75% of the slide), animals per group: n = 15; for Catalase (oxidative stress marker) / HPT (oxidative stress marker) / MDA (oxidative stress marker) / SODt (oxidative stress marker): liver samples, end of the third week of treatment
Method: This experiment was conducted to evaluate the effect of the pharmaceutical composition containing the GHRP-6 on reverting hepatic fibrosis in rats, wherein said hepatic fibrosis was induced by carbon tetrachloride (CCl4). This is a hepatotoxic agent that causes chronic hepatitis and fibrosis after long-term administration. Hepatic fibrosis was induced in male Wistar rats of 250 g of body weight by intraperitoneally administered CCl4 50%/50% (v/v) in olive oil, twice per week during four weeks. After that time, 25% of the rats were sacrificed and subjected to blood biochemistry and pathological anatomy studies. […] The animals remaining were randomly distributed into three experimental groups of 15 rats each: (1) Control placebo group, receiving physiological saline solution, (2) Group receiving the GHRP-6 at a 100 μg/kg dosage, and (3) Group receiving the GHRP-6 at a 400 μg/kg dosage. […] Treatments were started immediately after the fibrosis established and the suspension of CCl4 administration. […] Liver fragments were fixed in formalin neutral and processed by hematoxylin/eosin staining, or by Masson's trichromic staining, to evaluate the general damage and the severity of fibrotic indurations. Other fragments of liver tissues were stored at −70° C. until processing to determine the content of hydroxiproline by acid hydrolysis in 1N HCl, and also the intrahepatic levels of redox metabolism markers. Biochemical determinations were carried out by calculating the total protein content by the Bradford's method. The response to the treatment with the pharmaceutical composition was characterized by determining the serum levels of GOT and GPT transaminases, histological criteria in quantitative scale and some markers distinctive of the levels of lipid peroxidation.

[2] = tested on: renal fibrosis in rats (Doxorubicin); assay: Reverting renal fibrosis induced by Doxorubicin in rats (Example 3); assay type: in vivo, rat; details: for GOT serum level (integrity of the hepatic parenchyma) / GPT serum level (integrity of the hepatic parenchyma) / OH—P Content (hydroxiproline) in kidneys / Grado 0 (null) fibrosis in kidneys, numbers of animals per group / Grado 1 (moderate) fibrosis in kidneys, numbers of animals per group / Grado 2 (intense) fibrosis in kidneys, numbers of animals per group / Grado 3 (very intense) fibrosis in kidneys, numbers of animals per group: 4 weeks; for GOT serum level (integrity of the hepatic parenchyma) / GPT serum level (integrity of the hepatic parenchyma) / OH—P Content (hydroxiproline) in kidneys: end of treatment; for OH—P Content (hydroxiproline) in kidneys: 20 fragments per group; for Grado 0 (null) fibrosis in kidneys, numbers of animals per group / Grado 1 (moderate) fibrosis in kidneys, numbers of animals per group / Grado 2 (intense) fibrosis in kidneys, numbers of animals per group / Grado 3 (very intense) fibrosis in kidneys, numbers of animals per group: N = 20; for Catalase (oxidative stress marker) / HPT (oxidative stress marker) / MDA (oxidative stress marker) / SODt (oxidative stress marker): renal tissue samples, end of the fourth week of treatment
Method: This experiment was conducted to evaluate the effect of the pharmaceutical composition containing GHRP-6 in reverting renal fibrosis in rats. In this case, the process was induced by sustained administration of the anti-neoplasic agent Doxorubicin (DX) at a 2.5 mg/kg dosage twice a week during 8 weeks. […] This point forward, DX administration was interrupted and the treatment with the pharmaceutical composition containing the GHRP-6 was started. The treatment was applied once daily at 100 and 400 μg/kg in a volume of 1 ml by the intraperitoneal route, during 4 weeks. The animals remaining were randomly distributed into three experimental groups of 20 rats each: (1) Control placebo group, receiving physiological saline solution, (2) Group receiving the GHRP-6 at a 100 μg/kg dosage, and (3) Group receiving the GHRP-6 at a 400 μg/kg dosage. When treatments concluded, the animals were sacrificed by anesthesia overdose and livers, kidneys, lungs and blood sera were collected. Tissue fragments were fixed in formalin neutral and processed by hematoxylin/eosin staining, or by Masson's trichromic staining, to evaluate the general damage and the severity of fibrotic indurations. Other fragments were stored at −70° C. until processing to determine the content of hydroxiproline by acid hydrolysis in 1N HCl, and also the levels of creatinine and oxidative stress markers. Biochemical determinations were carried out by calculating the total protein content by the Bradford's method.

[3] = Dosage II: 400 μg/kg once daily
[4] = Dosage I: 100 μg/kg i.p. once daily
[5] = Dosage II: 400 μg/kg i.p. once daily
[6] = Dosis I: 100 μg/kg i.p. once daily
[7] = Dosis II: 400 μg/kg i.p. once daily

## GHRP-6
[1]; Dosage I: 100 μg/kg once daily
  GOT serum level: 56.31 ± 12.19 IU/l
  GPT serum level: 77.15 ± 22.66 IU/l
  OH—P Content (hydroxiproline) in the liver: 40.21 ± 3.54 μg/g of total proteins
  Grade 0 (null) bridging fibro-proliferative reaction in liver, animals per group: 0
  Grade 1 (moderate, up to 25% of the slide), animals per group: 9
  Grade 2 (limited, up to 50% of the slide), animals per group: 6*
  Grade 3 (severe, up to the 75% of the slide), animals per group: 0
  Grade 4 (very severe, over 75% of the slide), animals per group: 0
[1]; [3]
  GOT serum level: 28.18 ± 4.71 IU/l
  GPT serum level: 26.94 ± 12.42 IU/l
  OH—P Content (hydroxiproline) in the liver: 10.22 ± 4.33 μg/g of total proteins
  Grade 0 (null) bridging fibro-proliferative reaction in liver, animals per group: 8*
  Grade 1 (moderate, up to 25% of the slide), animals per group: 7
  Grade 2 (limited, up to 50% of the slide), animals per group: 0
  Grade 3 (severe, up to the 75% of the slide), animals per group: 0
  Grade 4 (very severe, over 75% of the slide), animals per group: 0
[1]; Dosage I: 100 μg/kg
  Catalase (oxidative stress marker): 60.43 ± 11.81
  HPT (oxidative stress marker): 55.11 ± 2.77
  MDA (oxidative stress marker): 0.16 ± 1.16
  SODt (oxidative stress marker): 17632.08 ± 321.55
[1]; Dosage II: 400 μg/kg
  Catalase (oxidative stress marker): 22.67 ± 3.56
  HPT (oxidative stress marker): 26.44 ± 2.43
  MDA (oxidative stress marker): 0.09 ± 0.01
  SODt (oxidative stress marker): 20187.87 ± 245.13
[1]; repeated CCl4 administration
  Deposition of collagenous and extracellular matrix materials in the liver parenchyma (overall result): eradicate and control deposition of collagenous and extracellular matrix materials
  Hepatocytes death: prevents individual, focal and pericentrolobular hepatocytes death
[2]; [4]
  GOT serum level (integrity of the hepatic parenchyma): 64.82 ± 23.71 IU/l
  GPT serum level (integrity of the hepatic parenchyma): 81.0 ± 10.25 IU/l
  OH—P Content (hydroxiproline) in kidneys: 46.15 ± 2.73 μg/g of total proteins
[2]; [5]
  GOT serum level (integrity of the hepatic parenchyma): 26.22 ± 4.1 IU/l
  GPT serum level (integrity of the hepatic parenchyma): 28.25 ± 5.66 IU/l
  OH—P Content (hydroxiproline) in kidneys: 8.66 ± 1.02 μg/g of total proteins
[2]; [6]
  Grado 0 (null) fibrosis in kidneys, numbers of animals per group: 6
  Grado 1 (moderate) fibrosis in kidneys, numbers of animals per group: 9
  Grado 2 (intense) fibrosis in kidneys, numbers of animals per group: 5
  Grado 3 (very intense) fibrosis in kidneys, numbers of animals per group: 0
[2]; [7]
  Grado 0 (null) fibrosis in kidneys, numbers of animals per group: 5
  Grado 1 (moderate) fibrosis in kidneys, numbers of animals per group: 15*
  Grado 2 (intense) fibrosis in kidneys, numbers of animals per group: 0
  Grado 3 (very intense) fibrosis in kidneys, numbers of animals per group: 0
[2]; FIGURE, 100 and 400 μg/kg vs. placebo, highest difference at 400 μg/kg
  Percent of animals with renal fibrosis compromise per group at the end of the treatment: dosage-dependent effect
[2]; Dosage I: 100 μg/kg
  Catalase (oxidative stress marker): 126.02 ± 12.23
  HPT (oxidative stress marker): 73.2 ± 6.92
  MDA (oxidative stress marker): 0.56 ± 2.23
  SODt (oxidative stress marker): 665.08 ± 28.42
[2]; Dosage II: 400 μg/kg
  Catalase (oxidative stress marker): 45.38 ± 8.27
  HPT (oxidative stress marker): 16.14 ± 3.67
  MDA (oxidative stress marker): 0.087 ± 0.02
  SODt (oxidative stress marker): 1287.64 ± 112.63
